Test results from patent US20080009418A1, “Selective Inhibitors” (Alchemia LTD., priority 2004, published 2008).

How the values were obtained:
Conditions in all cases: compound at 10 μM
Human δ-opioid (DOP) = biological target: T1, Human δ-opioid (DOP) (Homo sapiens, UniProt P41143); assay: Radioligand binding, human δ-opioid (DOP) membranes, FlashPlate, [3H]-Bremazocine
T1 construct: purchased Perkin Elmer Biosignal
How it was run: (§1)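 Cloned human receptor membranes were coated onto FlashPlate wells and incubated with radioligand and compound (added from a 0.5 mM DMSO daughter plate) for 1 hour at room temperature in the dark. Scintillation counting gave percent inhibition, with DMSO defining total and reference ligand defining non-specific binding.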

Human κ-Opioid (KOP) = biological target: T2, Human κ-Opioid (KOP) (Homo sapiens, UniProt P41145); assay: Radioligand binding, human κ-opioid (KOP) membranes, filtration, [3H]-Diprenorphine
T2 construct: purchased Perkin Elmer Biosignal
T2 sequence (P41145 whole entry): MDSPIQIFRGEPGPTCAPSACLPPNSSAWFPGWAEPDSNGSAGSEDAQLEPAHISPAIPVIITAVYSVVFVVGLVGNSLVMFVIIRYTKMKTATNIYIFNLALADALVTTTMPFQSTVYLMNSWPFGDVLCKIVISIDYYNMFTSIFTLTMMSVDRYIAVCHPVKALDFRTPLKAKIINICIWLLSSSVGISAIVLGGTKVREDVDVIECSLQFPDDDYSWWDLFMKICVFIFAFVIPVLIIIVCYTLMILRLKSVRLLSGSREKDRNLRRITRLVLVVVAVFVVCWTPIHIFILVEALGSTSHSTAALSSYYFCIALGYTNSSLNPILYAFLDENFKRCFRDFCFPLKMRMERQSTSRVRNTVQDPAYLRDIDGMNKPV
How it was run: (§2)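 Percent inhibition of radioligand binding measured on recombinant human membranes: NK1 with [125I]-Substance P, KOP with [3H]-Diprenorphine. Incubation 1 h at room temperature, then harvest onto 0.3% PEI-soaked filters, cold Tris-HCl pH 7.4 washes and scintillation counting; non-specific binding from reference ligand wells.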

Human Melanocortin (MC3) = biological target: T3, Human Melanocortin (MC3) (Homo sapiens, UniProt P41968); assay: Radioligand binding, human melanocortin MC3 membranes, FlashPlate, [125I]-NDP-αMSH
T3 construct: purchased Perkin Elmer Biosignal
T3 sequence (P41968 whole entry): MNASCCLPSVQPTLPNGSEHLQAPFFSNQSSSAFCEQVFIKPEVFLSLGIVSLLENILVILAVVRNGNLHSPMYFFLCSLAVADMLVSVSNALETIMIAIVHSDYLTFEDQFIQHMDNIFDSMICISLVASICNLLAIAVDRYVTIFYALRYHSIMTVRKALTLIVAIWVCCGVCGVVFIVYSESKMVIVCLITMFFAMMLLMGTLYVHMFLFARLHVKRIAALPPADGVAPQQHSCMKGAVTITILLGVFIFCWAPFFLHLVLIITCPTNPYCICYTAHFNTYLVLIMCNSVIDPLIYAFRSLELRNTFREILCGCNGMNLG
How it was run: as §1

Human Melanocortin (MC4) = biological target: T4, Human Melanocortin (MC4) (Homo sapiens, UniProt P32245); assay: Radioligand binding, human melanocortin MC4 membranes, FlashPlate, [125I]-NDP-αMSH
T4 construct: purchased Perkin Elmer Biosignal
T4 sequence (P32245 whole entry): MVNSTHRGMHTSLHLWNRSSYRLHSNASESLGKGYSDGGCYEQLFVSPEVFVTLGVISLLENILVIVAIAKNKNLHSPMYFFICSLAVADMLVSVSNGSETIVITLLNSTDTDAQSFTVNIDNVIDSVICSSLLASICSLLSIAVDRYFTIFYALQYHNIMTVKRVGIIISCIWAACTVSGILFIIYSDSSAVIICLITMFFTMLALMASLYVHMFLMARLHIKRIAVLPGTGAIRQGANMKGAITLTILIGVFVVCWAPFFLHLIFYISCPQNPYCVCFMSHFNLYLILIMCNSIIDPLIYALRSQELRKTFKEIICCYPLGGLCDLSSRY
How it was run: as §1

Human melanocortin (MC5) = biological target: T5, Human melanocortin (MC5) (Homo sapiens, UniProt P33032); assay: Radioligand binding, human melanocortin MC5 membranes, FlashPlate, [125I]-NDP-αMSH
T5 construct: purchased Perkin Elmer Biosignal
T5 sequence (P33032 whole entry): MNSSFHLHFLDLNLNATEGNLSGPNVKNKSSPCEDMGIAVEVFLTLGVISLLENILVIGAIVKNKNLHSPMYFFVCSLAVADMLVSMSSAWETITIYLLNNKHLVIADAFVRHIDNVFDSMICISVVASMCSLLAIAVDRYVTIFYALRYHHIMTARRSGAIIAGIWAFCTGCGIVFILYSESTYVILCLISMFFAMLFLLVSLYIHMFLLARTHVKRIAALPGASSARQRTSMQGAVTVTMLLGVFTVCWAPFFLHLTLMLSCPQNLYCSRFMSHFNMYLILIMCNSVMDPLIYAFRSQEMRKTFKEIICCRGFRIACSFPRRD
How it was run: as §1

[1] = biological target: T6, Human melanin-concentrating hormone (MCH1) (Homo sapiens, UniProt Q99705); assay: Radioligand binding, human melanin-concentrating hormone MCH1 membranes, FlashPlate, [125I]-S36057
T6 construct: purchased Perkin Elmer Biosignal
T6 sequence (Q99705 whole entry): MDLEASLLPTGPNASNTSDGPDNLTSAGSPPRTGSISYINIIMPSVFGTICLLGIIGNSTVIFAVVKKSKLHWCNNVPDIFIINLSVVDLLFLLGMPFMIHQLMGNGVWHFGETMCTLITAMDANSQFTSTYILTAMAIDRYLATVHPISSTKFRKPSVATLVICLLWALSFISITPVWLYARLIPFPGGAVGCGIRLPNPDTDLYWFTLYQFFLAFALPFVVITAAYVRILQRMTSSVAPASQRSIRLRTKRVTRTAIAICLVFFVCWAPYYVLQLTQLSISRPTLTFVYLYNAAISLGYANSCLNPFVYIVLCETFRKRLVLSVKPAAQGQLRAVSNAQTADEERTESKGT
How it was run: as §1

Human μ-opioid (MOP) = biological target: T7, Human μ-opioid (MOP) (Homo sapiens, UniProt P35372); assay: Radioligand binding, human μ-opioid (MOP) membranes, FlashPlate, [3H]-Naloxone
T7 construct: purchased Perkin Elmer Biosignal
T7 sequence (P35372 whole entry): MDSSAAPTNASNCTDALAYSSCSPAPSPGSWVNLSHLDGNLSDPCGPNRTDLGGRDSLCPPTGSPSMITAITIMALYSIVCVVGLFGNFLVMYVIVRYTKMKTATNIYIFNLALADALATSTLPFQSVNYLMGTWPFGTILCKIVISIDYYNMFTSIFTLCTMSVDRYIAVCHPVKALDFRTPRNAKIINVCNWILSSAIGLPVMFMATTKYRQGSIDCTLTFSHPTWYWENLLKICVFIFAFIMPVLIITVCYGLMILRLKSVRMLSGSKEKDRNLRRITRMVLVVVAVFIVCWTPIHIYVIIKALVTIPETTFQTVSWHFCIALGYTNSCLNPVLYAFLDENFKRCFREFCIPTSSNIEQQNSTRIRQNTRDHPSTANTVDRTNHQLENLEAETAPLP
How it was run: as §1

Human neurokinin (NK1) = biological target: T8, Human neurokinin (NK1) (Homo sapiens, UniProt P25103); assay: Radioligand binding, human neurokinin NK1 membranes, filtration, [125I]-Substance P
T8 construct: purchased Perkin Elmer Biosignal
T8 sequence (P25103 whole entry): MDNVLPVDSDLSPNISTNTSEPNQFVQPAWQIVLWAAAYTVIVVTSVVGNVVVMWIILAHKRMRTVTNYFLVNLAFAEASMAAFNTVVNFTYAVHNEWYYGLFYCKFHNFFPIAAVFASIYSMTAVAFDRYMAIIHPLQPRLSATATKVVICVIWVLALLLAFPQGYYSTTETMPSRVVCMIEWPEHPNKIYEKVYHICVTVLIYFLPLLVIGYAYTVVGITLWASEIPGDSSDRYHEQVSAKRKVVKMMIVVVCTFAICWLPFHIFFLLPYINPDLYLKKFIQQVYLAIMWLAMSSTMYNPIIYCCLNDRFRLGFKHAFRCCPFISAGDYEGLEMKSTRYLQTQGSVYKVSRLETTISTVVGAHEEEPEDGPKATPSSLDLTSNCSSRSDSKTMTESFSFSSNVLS
How it was run: as §2

[2] = biological target: T9, Human neuropeptide Y (NPY-Y1) (Homo sapiens, UniProt P25929); assay: Radioligand binding, human neuropeptide Y NPY-Y1 membranes, FlashPlate, [125I]-PYY
T9 construct: purchased Perkin Elmer Biosignal
T9 sequence (P25929 1-384): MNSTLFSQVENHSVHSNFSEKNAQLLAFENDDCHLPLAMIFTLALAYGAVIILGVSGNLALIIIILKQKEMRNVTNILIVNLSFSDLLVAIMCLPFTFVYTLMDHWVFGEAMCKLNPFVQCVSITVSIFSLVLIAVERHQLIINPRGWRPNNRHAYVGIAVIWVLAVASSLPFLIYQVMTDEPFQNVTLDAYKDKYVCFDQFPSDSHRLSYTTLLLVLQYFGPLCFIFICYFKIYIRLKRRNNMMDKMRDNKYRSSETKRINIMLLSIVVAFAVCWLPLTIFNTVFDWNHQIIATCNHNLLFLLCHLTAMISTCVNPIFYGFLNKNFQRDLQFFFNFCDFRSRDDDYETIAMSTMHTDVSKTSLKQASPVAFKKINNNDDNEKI
How it was run: as §1

Human opioid (ORL1) = biological target: T10, Human opioid (ORL1) (Homo sapiens, UniProt P41146); assay: Radioligand binding, human opioid ORL1 membranes, FlashPlate, [125I]-Nociceptin
T10 construct: purchased Perkin Elmer Biosignal
T10 sequence (P41146 whole entry): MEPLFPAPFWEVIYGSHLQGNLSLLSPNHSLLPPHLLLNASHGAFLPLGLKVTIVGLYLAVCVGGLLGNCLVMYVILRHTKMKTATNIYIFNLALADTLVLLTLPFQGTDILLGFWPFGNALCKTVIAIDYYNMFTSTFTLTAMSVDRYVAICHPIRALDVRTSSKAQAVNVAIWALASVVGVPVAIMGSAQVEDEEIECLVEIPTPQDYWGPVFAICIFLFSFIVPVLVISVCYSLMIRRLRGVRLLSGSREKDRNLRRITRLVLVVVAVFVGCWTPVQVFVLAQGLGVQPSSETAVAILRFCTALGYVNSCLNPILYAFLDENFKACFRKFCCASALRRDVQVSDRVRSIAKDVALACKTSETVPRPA
How it was run: as §1

Mouse urotensin (mUR2) = biological target: T11, Mouse urotensin (mUR2) (Mus musculus, UniProt Q8VIH9); assay: Radioligand binding, mouse urotensin mUR2 membranes, FlashPlate, [125I]-Urotensin II
T11 construct: purchased Perkin Elmer Biosignal
T11 sequence (Q8VIH9 1-385): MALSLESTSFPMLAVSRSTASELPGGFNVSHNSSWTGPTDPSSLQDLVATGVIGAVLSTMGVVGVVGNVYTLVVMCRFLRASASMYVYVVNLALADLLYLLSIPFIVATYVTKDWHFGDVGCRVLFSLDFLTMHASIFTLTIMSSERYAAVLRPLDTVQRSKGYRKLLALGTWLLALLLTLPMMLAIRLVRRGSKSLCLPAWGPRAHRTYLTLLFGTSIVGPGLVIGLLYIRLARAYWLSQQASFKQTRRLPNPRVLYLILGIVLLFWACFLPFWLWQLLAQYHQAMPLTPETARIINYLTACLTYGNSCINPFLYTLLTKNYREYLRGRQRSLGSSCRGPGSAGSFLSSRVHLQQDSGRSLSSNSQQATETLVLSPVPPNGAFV
How it was run: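 Cloned mouse urotensin (mUR2) receptor membranes from Perkin Elmer Biosignal were immobilized in FlashPlate microplates using a proprietary coating. Each well got 19.5 μl buffer, then 0.5 μl of DMSO, reference ligand, or compound. Adding 5 μl of [125I]-Urotensin II, diluted to 5× final concentration in binding buffer, started binding. Plates were sealed with TopSeal-A and incubated 1 hour at room temperature in the dark. Wells were counted for 30 seconds each on a TopCount after a 60-second delay, and percentage inhibition was calculated.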

[3] = [3H]-Bremazocine, human DOP membranes
[4] = [3H]-Diprenorphine, human KOP membranes
[5] = [125I]-NDP-αMSH, human MC3 membranes
[6] = [125I]-Substance P, human NK1 membranes
[7] = [125I]-PYY, human NPY-Y1 membranes
[8] = [125I]-Urotensin II, mouse mUR2 membranes

T1 sequence (P41143 whole entry): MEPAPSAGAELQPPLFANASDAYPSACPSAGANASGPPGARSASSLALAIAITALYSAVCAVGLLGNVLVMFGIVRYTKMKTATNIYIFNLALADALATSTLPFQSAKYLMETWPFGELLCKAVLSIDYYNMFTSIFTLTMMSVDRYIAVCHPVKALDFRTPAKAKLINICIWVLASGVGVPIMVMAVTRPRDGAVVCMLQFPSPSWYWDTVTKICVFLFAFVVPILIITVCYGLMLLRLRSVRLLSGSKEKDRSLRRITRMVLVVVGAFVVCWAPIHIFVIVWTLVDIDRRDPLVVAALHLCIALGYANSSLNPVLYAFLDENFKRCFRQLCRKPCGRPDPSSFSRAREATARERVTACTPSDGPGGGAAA

## N=C(N)NCCC(=O)NC1C(OCc2ccc(Cl)cc2)OC(COCc2ccccc2)C(O)C1OCc1ccc2ccccc2c1 (stereo not shown) [compound 430]
Human δ-opioid (DOP); [3]
  A1: inhibition of radioligand binding: − (“−” indicates less than 50% inhibition at 10 μM)
Human κ-Opioid (KOP); [4]
  A2: inhibition of radioligand binding: − (“−” indicates less than 50% inhibition at 10 μM)
Human Melanocortin (MC3); [5]
  A3: inhibition of radioligand binding: + (“+” indicates greater than 50% inhibition at 10 μM)
Human Melanocortin (MC4); [125I]-NDP-αMSH, human MC4 membranes
  A4: inhibition of radioligand binding: + (“+” indicates greater than 50% inhibition at 10 μM)
Human melanocortin (MC5); [125I]-NDP-αMSH, human MC5 membranes
  A5: inhibition of radioligand binding: + (“+” indicates greater than 50% inhibition at 10 μM)
[1]; [125I]-S36057, human MCH1 membranes
  A6: inhibition of radioligand binding: + (“+” indicates greater than 50% inhibition at 10 μM)
Human μ-opioid (MOP); [3H]-Naloxone, human MOP membranes
  A7: inhibition of radioligand binding: − (“−” indicates less than 50% inhibition at 10 μM)
Human neurokinin (NK1); [6]
  A8: inhibition of radioligand binding: + (“+” indicates greater than 50% inhibition at 10 μM)
[2]; [7]
  A9: inhibition of radioligand binding: − (“−” indicates less than 50% inhibition at 10 μM)
Human opioid (ORL1); [125I]-Nociceptin, human ORL1 membranes
  A10: inhibition of radioligand binding: + (“+” indicates greater than 50% inhibition at 10 μM)
Mouse urotensin (mUR2); [8]
  A11: inhibition of radioligand binding: − (“−” indicates less than 50% inhibition at 10 μM)

## COC[C@H]1OC(OCc2ccc(-c3ccccc3)cc2)[C@H](NC(=O)CCCNC(=N)N)[C@@H](OCc2ccc3ccccc3c2)[C@@H]1O (stereo partly shown) [compound 6]
Human δ-opioid (DOP); human δ-opioid (DOP) membranes
  A1 radioligand binding inhibition: − (“−” indicates less than 50% inhibition at 10 μM)
Human κ-Opioid (KOP); human κ-opioid (KOP) membranes
  A2 radioligand binding inhibition: + (“+” indicates greater than 50% inhibition at 10 μM)
Human Melanocortin (MC3); human melanocortin MC3 membranes
  A3 radioligand binding inhibition: − (“−” indicates less than 50% inhibition at 10 μM)
Human Melanocortin (MC4); human melanocortin MC4 membranes
  A4 radioligand binding inhibition: − (“−” indicates less than 50% inhibition at 10 μM)
Human melanocortin (MC5); human melanocortin MC5 membranes
  A5 radioligand binding inhibition: + (“+” indicates greater than 50% inhibition at 10 μM)
[1]; human MCH1 membranes
  A6 radioligand binding inhibition: + (“+” indicates greater than 50% inhibition at 10 μM)
Human μ-opioid (MOP); human μ-opioid (MOP) membranes
  A7 radioligand binding inhibition: + (“+” indicates greater than 50% inhibition at 10 μM)
Human neurokinin (NK1); human neurokinin NK1 membranes
  A8 radioligand binding inhibition: + (“+” indicates greater than 50% inhibition at 10 μM)
[2]; human NPY-Y1 membranes
  A9 radioligand binding inhibition: − (“−” indicates less than 50% inhibition at 10 μM)
Human opioid (ORL1); human ORL1 membranes
  A10 radioligand binding inhibition: − (“−” indicates less than 50% inhibition at 10 μM)
Mouse urotensin (mUR2); mouse urotensin mUR2 membranes
  A11 radioligand binding inhibition: − (“−” indicates less than 50% inhibition at 10 μM)

## CSC1OC(COCc2ccc3ccccc3c2)C(O)C(OCc2ccccc2)C1NC(=O)CCCNC(=N)N (stereo not shown) [compound 264]
Human δ-opioid (DOP); [3H]-Bremazocine, FlashPlate
  A1: inhibition of radioligand binding: − (“−” indicates less than 50% inhibition at 10 μM)
Human κ-Opioid (KOP); [3H]-Diprenorphine, filtration
  A2: inhibition of radioligand binding: − (“−” indicates less than 50% inhibition at 10 μM)
Human Melanocortin (MC3); [125I]-NDP-αMSH, FlashPlate
  A3: inhibition of radioligand binding: − (“−” indicates less than 50% inhibition at 10 μM)
Human Melanocortin (MC4); [125I]-NDP-αMSH, FlashPlate
  A4: inhibition of radioligand binding: − (“−” indicates less than 50% inhibition at 10 μM)
Human melanocortin (MC5); [125I]-NDP-αMSH, FlashPlate
  A5: inhibition of radioligand binding: − (“−” indicates less than 50% inhibition at 10 μM)
[1]; [125I]-S36057, FlashPlate
  A6: inhibition of radioligand binding: − (“−” indicates less than 50% inhibition at 10 μM)
Human μ-opioid (MOP); [3H]-Naloxone, FlashPlate
  A7: inhibition of radioligand binding: − (“−” indicates less than 50% inhibition at 10 μM)
Human neurokinin (NK1); [125I]-Substance P, filtration
  A8: inhibition of radioligand binding: + (“+” indicates greater than 50% inhibition at 10 μM)
[2]; [125I]-PYY, FlashPlate
  A9: inhibition of radioligand binding: − (“−” indicates less than 50% inhibition at 10 μM)
Human opioid (ORL1); [125I]-Nociceptin, FlashPlate
  A10: inhibition of radioligand binding: − (“−” indicates less than 50% inhibition at 10 μM)
Mouse urotensin (mUR2); [125I]-Urotensin II, FlashPlate
  A11: inhibition of radioligand binding: − (“−” indicates less than 50% inhibition at 10 μM)

## CSC1OC(COCc2ccc3ccccc3c2)C(O)C(OCc2ccc3ccccc3c2)C1NC(=O)CCCNC(=N)N (stereo not shown) [compound 321]
Human δ-opioid (DOP); [3H]-Bremazocine
  A1: inhibition of radioligand binding, human δ-opioid (DOP): − (“−” indicates less than 50% inhibition at 10 μM)
Human κ-Opioid (KOP); [3H]-Diprenorphine
  A2: inhibition of radioligand binding, human κ-opioid (KOP): − (“−” indicates less than 50% inhibition at 10 μM)
Human Melanocortin (MC3); [125I]-NDP-αMSH
  A3: inhibition of radioligand binding, human melanocortin (MC3): + (“+” indicates greater than 50% inhibition at 10 μM)
Human Melanocortin (MC4); [125I]-NDP-αMSH
  A4: inhibition of radioligand binding, human melanocortin (MC4): + (“+” indicates greater than 50% inhibition at 10 μM)
Human melanocortin (MC5); [125I]-NDP-αMSH
  A5: inhibition of radioligand binding, human melanocortin (MC5): + (“+” indicates greater than 50% inhibition at 10 μM)
[1]; [125I]-S36057
  A6: inhibition of radioligand binding, human melanin-concentrating hormone (MCH1): + (“+” indicates greater than 50% inhibition at 10 μM)
Human μ-opioid (MOP); [3H]-Naloxone
  A7: inhibition of radioligand binding, human μ-opioid (MOP): − (“−” indicates less than 50% inhibition at 10 μM)
Human neurokinin (NK1); [125I]-Substance P
  A8: inhibition of radioligand binding, human neurokinin (NK1): + (“+” indicates greater than 50% inhibition at 10 μM)
[2]; [125I]-PYY
  A9: inhibition of radioligand binding, human neuropeptide Y (NPY-Y1): − (“−” indicates less than 50% inhibition at 10 μM)
Human opioid (ORL1); [125I]-Nociceptin
  A10: inhibition of radioligand binding, human opioid (ORL1): − (“−” indicates less than 50% inhibition at 10 μM)
Mouse urotensin (mUR2); [125I]-Urotensin II
  A11: inhibition of radioligand binding, mouse urotensin (mUR2): − (“−” indicates less than 50% inhibition at 10 μM)

## NCCCC(=O)NC1C(OCc2ccc3ccccc3c2)OC(COCc2ccccc2)C(O)C1OCc1ccc(Cl)cc1 (single isomer, unassigned) [compound 456]
Human δ-opioid (DOP); [3]
  A1: inhibition of radioligand binding: − (“−” indicates less than 50% inhibition at 10 μM)
Human κ-Opioid (KOP); [4]
  A2: inhibition of radioligand binding: − (“−” indicates less than 50% inhibition at 10 μM)
Human Melanocortin (MC3); [5]
  A3: inhibition of radioligand binding: − (“−” indicates less than 50% inhibition at 10 μM)
Human Melanocortin (MC4); [125I]-NDP-αMSH, human MC4 membranes, 10 µM
  A4: inhibition of radioligand binding: − (“−” indicates less than 50% inhibition at 10 μM)
Human melanocortin (MC5); [125I]-NDP-αMSH, human MC5 membranes, 10 µM
  A5: inhibition of radioligand binding: + (“+” indicates greater than 50% inhibition at 10 μM)
[1]; [125I]-S36057, human MCH1 membranes, 10 µM
  A6: inhibition of radioligand binding: + (“+” indicates greater than 50% inhibition at 10 μM)
Human μ-opioid (MOP); [3H]-Naloxone, human MOP membranes, 10 µM
  A7: inhibition of radioligand binding: − (“−” indicates less than 50% inhibition at 10 μM)
Human neurokinin (NK1); [6]
  A8: inhibition of radioligand binding: + (“+” indicates greater than 50% inhibition at 10 μM)
[2]; [7]
  A9: inhibition of radioligand binding: − (“−” indicates less than 50% inhibition at 10 μM)
Human opioid (ORL1); [125I]-Nociceptin, human ORL1 membranes, 10 µM
  A10: inhibition of radioligand binding: − (“−” indicates less than 50% inhibition at 10 μM)
Mouse urotensin (mUR2); [8]
  A11: inhibition of radioligand binding: − (“−” indicates less than 50% inhibition at 10 μM)
